What was measured:
Assay type in all cases: physicochemical
[1] = Hygroscopicity study by dynamic vapor sorption (DVS); settings: 25° C., RH 10% per step, 10 min per step
Experimental: Dynamic Vapor Sorption DVS
Model: DVS intrinsic (SMS, British);
Method: 25° C., relative humidity is stepped up at a rate of 10%, the judgment standard is change in moisture content is <0.02% over a 10-minute period.
Dynamic vapor sorption (DVS) experiment are performed for crystal form A in Example 2 to obtain DVS curves under the following conditions: the temperature is 25° C., the relative humidity (RH) is stepped up from RH 0 to RH 90% at a rate of RH 10% per step, with 10 min for each step to reach equilibrium.

[2] = Light stability of the crystal form (XRPD comparison with day 0); settings: 25° C., 4500 Lux, XRPD vs day 0
Experimental: (1) Light stability: the test sample is placed in an environment having a temperature of 25° C. and a light condition of 4500 Lux for 5 days and 10 days, respectively, to test the stability of the crystal form, which are compared with XRPD pattern of the crystal form A on day 0.
(1) Light stability: by referring to the same method of light stability test for crystal A, the test sample is placed in an environment having a temperature of 25° C. and a light condition of 4500 Lux for 5 days to test the stability of the crystal form, which is compared with XRPD pattern of the crystal form I on day 0.

[3] = High-temperature stability of the crystal form (XRPD comparison with day 0); settings: 60° C., XRPD vs day 0
Experimental: (2) High-temperature stability: the test sample is placed at a temperature of 60° C. for 5 days and 10 days, respectively, to test the stability of the crystal form, which are compared with XRPD pattern of the crystal form A on day 0.
(2) High-temperature stability: by referring to the same method of high-temperature stability test for crystal A, the test sample is placed at a temperature of 60° C. for 5 days to test the stability of the crystal form, which is compared with XRPD pattern of the crystal form I on day 0.

[4] = High-humidity stability 1 of the crystal form (XRPD comparison with day 0); settings: 92.5% RH, 25° C., XRPD vs day 0
Experimental: (§1) (3) High-humidity stability 1: the test sample is placed in an environment having a humidity of 92.5% RH and a temperature of 25° C. for 5 days and 10 days, respectively, to test the stability of the crystal form, which are compared with XRPD pattern of the crystal form A on day 0.
as §1, with “1: by referring to the same method of high-humidity stability test 1 for crystal A,” for “1:”, “days” for “days and 10 days, respectively,”, “I” for “A”

[5] = High-humidity stability 2 of the crystal form (XRPD comparison with day 0); settings: 75% RH, 40° C., XRPD vs day 0
Experimental: (§2) (4) High-humidity stability 2: the test sample is placed in an environment having a humidity of 75% RH and a temperature of 40° C. for 5 days and 10 days, respectively, to test the stability of the crystal form, which are compared with XRPD pattern of the crystal form A on day 0.
as §2, with “2: by referring to the same method of high-humidity stability test 2 for crystal A,” for “2:”, “days” for “days and 10 days, respectively,”, “I” for “A”

Row | weight change in each step of 10 min [1] | light stability of the crystal form ([2]; 5 days and 10 days) | high-temperature stability of the crystal form ([3]; 5 days and 10 days) | high-humidity stability 1 of the crystal form ([4]; 5 days and 10 days) | high-humidity stability 2 of the crystal form ([5]; 5 days and 10 days) | Compound | light stability of the crystal form ([2]; 5 days) | high-temperature stability of the crystal form ([3]; 5 days) | high-humidity stability 1 of the crystal form ([4]; 5 days) | high-humidity stability 2 of the crystal form ([5]; 5 days)
1 | less than 0.02% | good light stability | good high-temperature stability | good high-humidity stability | good high-humidity stability | NC(=O)C(c1ccccc1)(c1ccc(F)cc1)c1ccc(F)cc1 [crystal form A, 2,2-bis(4-fluorophenyl)-2-phenylacetamide] | – | – | – | –
2 | – | – | – | – | – | NC(=O)C(c1ccccc1)(c1ccc(F)cc1)c1ccc(F)cc1 [crystal form I, 2,2-bis(4-fluorophenyl)-2-phenylacetamide, reference compound] | unstable under lights and easily transforms into crystal form A | unstable under high temperatures and easily transforms into crystal form A | unstable under high humidity and easily transforms into crystal form A | unstable under high humidity and easily transforms into crystal form A

From US12286389B2, “Crystalline form a of 2, 2-bis(4-fluorophenyl)-2-phenylacetamide and preparation method therefor and application thereof” (SHENZHEN RENTAI PHARMATECH LTD., priority 2019, dated 2025)
